Experimental data from ChEMBL document CHEMBL1201861, “Genomics of Drug Sensitity in Cancer screening data, Wellcome Trust Sanger Institute”.

Experiments:
RVH-421 = assay: cells; type: functional, cell-based; conditions: Homo sapiens
Description: SANGER: Inhibition of human RVH-421 cell growth in a cell viability assay.

HCC1806 = assay: cells; type: functional, cell-based; conditions: Homo sapiens;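 also: growth inhibition of the cancer cell line, determined with a cell viability assay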
Description: SANGER: Inhibition of human HCC1806 cell growth in a cell viability assay.

EGI-1 = assay: cells; type: functional, cell-based; conditions: Homo sapiens;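 also: cell viability readout used to gauge growth inhibition of EGI-1 cells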
Description: SANGER: Inhibition of human EGI-1 cell growth in a cell viability assay.

OPM-2 = assay: cells; type: functional, cell-based; conditions: Homo sapiens;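 also: growth of OPM-2 cells measured with a viability assay, IC50 for suppression of proliferation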
Description: SANGER: Inhibition of human OPM-2 cell growth in a cell viability assay.

P12-Ichikawa = assay: cells; type: functional, cell-based; conditions: Homo sapiens
D-392MG = assay: cells; type: functional, cell-based; conditions: Homo sapiens
CAMA-1 = assay: cells; type: functional, cell-based; conditions: Homo sapiens;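 also: growth inhibition of CAMA-1 cells, read out with a cell viability assay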
Description: SANGER: Inhibition of human CAMA-1 cell growth in a cell viability assay.

NCI-H2122 = assay: cells; type: functional, cell-based; conditions: Homo sapiens;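 also: growth inhibition of the cells, read out with a cell viability assay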
Description: SANGER: Inhibition of human NCI-H2122 cell growth in a cell viability assay.

RCM-1 = assay: cells; type: functional, cell-based; conditions: Homo sapiens;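 also: growth inhibition of the RCM-1 line, determined with a cell viability readout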
Description: SANGER: Inhibition of human RCM-1 cell growth in a cell viability assay.

TGW = assay: cells; type: functional, cell-based; conditions: Homo sapiens;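 also: growth inhibition of human TGW cells, read out with a cell viability assay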
Description: SANGER: Inhibition of human TGW cell growth in a cell viability assay.

DBTRG-05MG = assay: cells; type: functional, cell-based; conditions: Homo sapiens;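 also: cell viability assay measuring growth inhibition of human DBTRG-05MG cells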
Description: SANGER: Inhibition of human DBTRG-05MG cell growth in a cell viability assay.

NCI-H1793 = assay: cells; type: functional, cell-based; conditions: Homo sapiens;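 also: cell growth inhibition, read out by a cell viability assay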
Description: SANGER: Inhibition of human NCI-H1793 cell growth in a cell viability assay.

NCI-H187 = assay: cells; type: functional, cell-based; conditions: Homo sapiens;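 also: growth inhibition of NCI-H187 cells, read out as cell viability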
Description: SANGER: Inhibition of human NCI-H187 cell growth in a cell viability assay.

HT1197 = assay: cells; type: functional, cell-based, HT-1197; conditions: Homo sapiens
Description: SANGER: Inhibition of human HT-1197 cell growth in a cell viability assay.

DG-75 = assay: cells; type: functional, cell-based; conditions: Homo sapiens;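 also: growth inhibition of DG-75 cells, read out with a cell viability assay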
Description: SANGER: Inhibition of human DG-75 cell growth in a cell viability assay.

BOKU = assay: cells; type: functional, cell-based; conditions: Homo sapiens;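 also: growth inhibition of the human BOKU cell line, read out by a cell viability assay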
Description: SANGER: Inhibition of human BOKU cell growth in a cell viability assay.

MC-CAR = assay: cells; type: functional, cell-based; conditions: Homo sapiens;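 also: growth inhibition of the human MC-CAR cell line, read out by a cell viability assay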
Description: SANGER: Inhibition of human MC-CAR cell growth in a cell viability assay.

SW1573 = assay: cells; type: functional, cell-based; conditions: Homo sapiens;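 also: growth inhibition of SW1573 cells, read out with a cell viability assay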
Description: SANGER: Inhibition of human SW1573 cell growth in a cell viability assay.

KYSE-520 cell line = assay: cells; type: functional, cell-based; conditions: Homo sapiens;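 also: growth inhibition of human KYSE-520 cells, read out with a viability assay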
Description: SANGER: Inhibition of human KYSE-520 cell growth in a cell viability assay.

SAS = assay: cells; type: functional, cell-based; conditions: Homo sapiens;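 also: growth inhibition of SAS cells, read out with a cell viability assay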
Description: SANGER: Inhibition of human SAS cell growth in a cell viability assay.

786-0 = assay: cells; type: functional, cell-based; conditions: Homo sapiens
Description: SANGER: Inhibition of human 786-0 cell growth in a cell viability assay.

HCC70 = assay: cells; type: functional, cell-based; conditions: Homo sapiens;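 also: cell viability assay measuring how strongly the compound suppresses proliferation of HCC70 cells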
Description: SANGER: Inhibition of human HCC70 cell growth in a cell viability assay.

TE-15 = assay: cells; type: functional, cell-based; conditions: Homo sapiens;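 also: cell viability readout of growth inhibition in TE-15 cells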
Description: SANGER: Inhibition of human TE-15 cell growth in a cell viability assay.

FTC-133 = assay: cells; type: functional, cell-based; conditions: Homo sapiens
SCLC-21H = assay: cells; type: functional, cell-based; conditions: Homo sapiens;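 also: growth inhibition of cultured human SCLC-21H cells, read out with a cell viability assay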
Description: SANGER: Inhibition of human SCLC-21H cell growth in a cell viability assay.

ESS-1 = assay: cells; type: functional, cell-based; conditions: Homo sapiens;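 also: growth inhibition of human ESS-1 cells, read out by a cell viability assay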
Description: SANGER: Inhibition of human ESS-1 cell growth in a cell viability assay.

ASPC1 = assay: cells; type: functional, cell-based; conditions: Homo sapiens;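 also: growth inhibition of AsPC-1 cells, read out with a cell viability assay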
Description: SANGER: Inhibition of human AsPC-1 cell growth in a cell viability assay.

COLO-680N = assay: cells; type: functional, cell-based; conditions: Homo sapiens;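 also: cell viability assay used to measure inhibition of COLO-680N cell growth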
Description: SANGER: Inhibition of human COLO-680N cell growth in a cell viability assay.

HuCCT-1 = assay: cells; type: functional, cell-based, HuCCT1; conditions: Homo sapiens;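 also: growth inhibition of HuCCT-1 cells, read out by a cell viability assay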
Description: SANGER: Inhibition of human HuCCT1 cell growth in a cell viability assay.

CAL-120 = assay: cells; type: functional, cell-based; conditions: Homo sapiens;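 also: cell growth inhibition, read out as cell viability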
Description: SANGER: Inhibition of human CAL-120 cell growth in a cell viability assay.

SW1783 = assay: cells; type: functional, cell-based; conditions: Homo sapiens
Description: SANGER: Inhibition of human SW1783 cell growth in a cell viability assay.

OAW-28 = assay: cells; type: functional, cell-based; conditions: Homo sapiens;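 also: growth inhibition of OAW-28 cells, read out with a cell viability assay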
Description: SANGER: Inhibition of human OAW-28 cell growth in a cell viability assay.

NCI-H520 = assay: cells; type: functional, cell-based; conditions: Homo sapiens;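 also: growth inhibition of NCI-H520 cells, measured by a cell viability assay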
Description: SANGER: Inhibition of human NCI-H520 cell growth in a cell viability assay.

SCC-25 = assay: cells; type: functional, cell-based; conditions: Homo sapiens;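 also: growth inhibition of SCC-25 cells, measured with a cell viability assay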
Description: SANGER: Inhibition of human SCC-25 cell growth in a cell viability assay.

HMV-2 cell line = assay: cells; type: functional, cell-based; conditions: Homo sapiens;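 also: growth inhibition of HMV-II cells, read out with a cell viability assay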
Description: SANGER: Inhibition of human HMV-II cell growth in a cell viability assay.

COLO-678 = assay: cells; type: functional, cell-based; conditions: Homo sapiens
Description: SANGER: Inhibition of human COLO-678 cell growth in a cell viability assay.

YT = assay: cells; type: functional, cell-based; conditions: Homo sapiens
Description: SANGER: Inhibition of human YT cell growth in a cell viability assay.

SU-DHL-1 = assay: SANGER: Inhibition of human SU-DHL-1 cell growth in a cell viability assay.; type: functional, cell-based
HSC-4 = assay: cells; type: functional, cell-based; conditions: Homo sapiens;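 also: growth inhibition of human HSC-4 cells, read out with a cell viability assay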
Description: SANGER: Inhibition of human HSC-4 cell growth in a cell viability assay.

MFE-280 = assay: cells; type: functional, cell-based; conditions: Homo sapiens;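 also: growth inhibition of MFE-280 cells, determined with a cell viability readout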
Description: SANGER: Inhibition of human MFE-280 cell growth in a cell viability assay.

BL-70 = assay: SANGER: Inhibition of human BL-70 cell growth in a cell viability assay.; type: functional, cell-based
CAL-72 = assay: cells; type: functional, cell-based; conditions: Homo sapiens;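 also: cell viability assay measuring inhibition of proliferation in the CAL-72 cell line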
Description: SANGER: Inhibition of human CAL-72 cell growth in a cell viability assay.

SW948 = assay: cells; type: functional, cell-based; conditions: Homo sapiens;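 also: growth inhibition of SW948 cells, read out with a cell viability assay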
Description: SANGER: Inhibition of human SW948 cell growth in a cell viability assay.

RPMI-6666 = assay: cells; type: functional, cell-based; conditions: Homo sapiens
Description: SANGER: Inhibition of human RPMI-6666 cell growth in a cell viability assay.

MONO-MAC-6 = assay: cells; type: functional, cell-based; conditions: Homo sapiens;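 also: cell viability assay measuring growth inhibition of human MONO-MAC-6 cells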
Description: SANGER: Inhibition of human MONO-MAC-6 cell growth in a cell viability assay.

8305C = assay: cells; type: functional, cell-based; conditions: Homo sapiens
Description: SANGER: Inhibition of human 8305C cell growth in a cell viability assay.

RPMI-7951 = assay: cells; type: functional, cell-based; conditions: Homo sapiens
Description: SANGER: Inhibition of human RPMI-7951 cell growth in a cell viability assay.

NCI-H358 = assay: cells; type: functional, cell-based; conditions: Homo sapiens;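 also: growth inhibition of NCI-H358 human cells, read out with a cell viability assay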
Description: SANGER: Inhibition of human NCI-H358 cell growth in a cell viability assay.

HLE = assay: cells; type: functional, cell-based; conditions: Homo sapiens;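 also: growth inhibition of human HLE cells, read out by a cell viability assay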
Description: SANGER: Inhibition of human HLE cell growth in a cell viability assay.

Capan-2 = assay: cells; type: functional, cell-based; conditions: Homo sapiens;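 also: Capan-2 cell growth inhibition, read out with a viability assay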
Description: SANGER: Inhibition of human Capan-2 cell growth in a cell viability assay.

LK-2 = assay: cells; type: functional, cell-based; conditions: Homo sapiens;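 also: growth inhibition of LK-2 cells, read out with a viability assay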
Description: SANGER: Inhibition of human LK-2 cell growth in a cell viability assay.

VM-CUB-1 = assay: cells; type: functional, cell-based; conditions: Homo sapiens;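 also: cell viability assay measuring growth inhibition of the human VM-CUB-1 cell line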
Description: SANGER: Inhibition of human VM-CUB-1 cell growth in a cell viability assay.

T84 = assay: cells; type: functional, cell-based; conditions: Homo sapiens;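 also: growth inhibition measured with a cell viability readout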
Description: SANGER: Inhibition of human T84 cell growth in a cell viability assay.

PF-382 = assay: cells; type: functional, cell-based; conditions: Homo sapiens
Description: SANGER: Inhibition of human PF-382 cell growth in a cell viability assay.

MDA-MB-415 = assay: cells; type: functional, cell-based; conditions: Homo sapiens
NCI-H2405 = assay: cells; type: functional, cell-based; conditions: Homo sapiens;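 also: growth inhibition of the human cell line, read out with a cell viability assay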
Description: SANGER: Inhibition of human NCI-H2405 cell growth in a cell viability assay.

HGC-27 = assay: cells; type: functional, cell-based; conditions: Homo sapiens;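 also: growth inhibition of human HGC-27 cells, read out in a cell viability assay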
Description: SANGER: Inhibition of human HGC-27 cell growth in a cell viability assay.

LU-99A = assay: cells; type: functional, cell-based; conditions: Homo sapiens;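 also: growth inhibition of LU-99A cells, read out with a cell viability assay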
Description: SANGER: Inhibition of human LU-99A cell growth in a cell viability assay.

HCC1954 = assay: cells; type: functional, cell-based; conditions: Homo sapiens;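 also: growth inhibition of human HCC1954 cells, read out with a cell viability assay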
Description: SANGER: Inhibition of human HCC1954 cell growth in a cell viability assay.

MDA-MB-453 = assay: cells; type: functional, cell-based; conditions: Homo sapiens
Description: SANGER: Inhibition of human MDA-MB-453 cell growth in a cell viability assay.

NCI-H1693 = assay: cells; type: functional, cell-based; conditions: Homo sapiens;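 also: growth inhibition of the human cell line, read out with a cell viability assay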
Description: SANGER: Inhibition of human NCI-H1693 cell growth in a cell viability assay.

FaDu = assay: cells; type: functional, cell-based; conditions: Homo sapiens;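 also: cell viability readout of growth inhibition in FaDu cells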
Description: SANGER: Inhibition of human FADU cell growth in a cell viability assay.

NCI-H596 = assay: cells; type: functional, cell-based; conditions: Homo sapiens;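 also: growth inhibition of NCI-H596 cells, read out with a cell viability assay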
Description: SANGER: Inhibition of human NCI-H596 cell growth in a cell viability assay.

REH = assay: cells; type: functional, cell-based; conditions: Homo sapiens;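 also: growth inhibition of REH cells determined with a cell viability read-out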
Description: SANGER: Inhibition of human REH cell growth in a cell viability assay.

Measured: IC50

CC(O)(CS(=O)(=O)c1ccc(F)cc1)C(=O)Nc1ccc(C#N)c(C(F)(F)F)c1 (centres undefined) [BICALUTAMIDE]
> 1020 nM: all assays above
